Data taken from patent US20190314352A1, “ADMINISTRATION OF DIPEPTIDYL PEPTIDASE INHIBITORS” (Takeda Pharmaceutical Company Limited, priority 2005, published 2019).

Tests used:
[1] = test system: newly diagnosed type II diabetes patients; assay: 4-hour postprandial plasma glucose (Cavg) following breakfast, 14-day repeat-dose placebo-controlled study; type: in vivo, human; conditions: for mean reduction from baseline in Cavg B / mean reduction in Cavg B calculated as a percent change: fourteen days of treatment; for 4-hour postprandial plasma glucose following breakfast, Day 14 Actual, Mean: 14 days; for 4-hour postprandial plasma glucose, Difference in Change from Baseline from Placebo, LS Mean: Day 14, ANCOVA; for 4-hour postprandial plasma glucose following breakfast, Day 14 Change from Baseline, Mean: baseline Day −1
Excerpt: Data was collected at each study visit.
The primary efficacy analysis was based on change in mean 4-hour prandial glucose concentrations (Cavg) from Day −1 to Day 14. Table A summarizes the primary efficacy endpoint measured following breakfast.

[2] = test system: newly diagnosed type II diabetes patients; assay: Glycosylated hemoglobin (HbA1c), 14-day repeat-dose placebo-controlled study; type: in vivo, human; conditions: for HbA1c, Difference in Change from Baseline from Placebo, LS Mean: Day 15, ANCOVA; for HbA1c, Day 15 Change from Baseline, Mean: baseline Day −7
Description: (§1) Blood samples were collected on Days 6, 16, 17, and 21 for analysis of efficacy based on change in mean 4-hour postprandial plasma glucose (Cavg) from Day −1 to Day 14. Secondary efficacy endpoints included mean 4-hour prandial fructosamine, and glycosylated hemoglobin (HbA1c). Data was collected at each study visit. Inhibition of DPPIV activity was also determined using an assay validated for human plasma samples.

[3] = test system: newly diagnosed type II diabetes patients; assay: Fasting fructosamine, 14-day repeat-dose placebo-controlled study; type: in vivo, human; conditions: for Fasting Fructosamine, Day 15 Actual, Mean: type II diabetes patients; for Fasting Fructosamine, Difference in Change from Baseline from Placebo, LS Mean: Day 15, ANCOVA; for Fasting Fructosamine, Day 15 Change from Baseline, Mean: baseline Day −7
Description: as §1

[4] = test system: Male db/db (BKS.Cg-+Lepr^db/+Lepr^db) mice; assay: Co-administration with pioglitazone: glycosylated hemoglobin levels in mice; type: in vivo; conditions: 21 days in powder chow: 0.03% (w/w) benzoate salt of Compound I and/or 0.0075% (w/w) pioglitazone hydrochloride, n=8, mean ± SD
Description: Male db/db (BKS.Cg-+Lepr^db/+Lepr^db) mice (6 weeks of age, CLEA Japan (Tokyo, Japan)) were divided into 4 groups (n=8 in each group) comprising Group A to Group D. Group A had free access to CE-2 powder chow (CLEA Japan) for 21 days. […] Group C had free access to CE-2 powder chow (CLEA Japan) containing 0.0075% (w/w) of pioglitazone hydrochloride for 21 days. The dose of pioglitazone in Group C was calculated to be 15.4±1.5 (mean±SD) mg/kg body weight/day. […] During 21 days of administration of the powder chow, there were not significant differences in the administration amount of the powder chow in the above 4 groups. After 21 days of administration of the powder chow, blood samples were taken from the orbital veins of the mice by capillary pipette under feeding condition, and Glycosylated hemoglobin levels were measured by HPLC-based method using TOSOH automated GHb Analyzer HLC-723 G7 (TOSOH, Japan).
The values in the table means average (n=8)±standard deviation.

[5] = test system: newly diagnosed type II diabetes patients; assay: Glycosylated hemoglobin (HbA1c), 14-day repeat-dose placebo-controlled study; type: in vivo, human; conditions: one time per day at the specified dosage levels, extended treatment; expected
[6] = test system: newly diagnosed type II diabetes patients; assay: Fasting fructosamine, 14-day repeat-dose placebo-controlled study; type: in vivo, human; conditions: for Fasting Fructosamine, Difference in Change from Baseline from Placebo, LS Mean: Day 15, ANCOVA

Cn1c(=O)cc(N2CCC[C@@H](N)C2)n(Cc2ccccc2C#N)c1=O [Compound I, 2-[[6-[(3R)-3-amino-1-piperidinyl]-3,4-dihydro-3-methyl-2,4-dioxo-1(2H)-pyrimidinyl]methyl]-benzonitrile]
mean reduction from baseline in Cavg B ([1]; 25 mg group): 33 mg/dL
mean reduction in Cavg B calculated as a percent change ([1]; 25 mg group): 15%
4-hour postprandial plasma glucose following breakfast, Day 14 Actual, Mean ([1]; 25 mg/day, type II diabetes patients): 203.2 mg/dL
4-hour postprandial plasma glucose, Difference in Change from Baseline from Placebo, LS Mean ([1]; 25 mg/day): -39.9 mg/dL
4-hour postprandial plasma glucose following breakfast, Day 14 Change from Baseline, Mean ([1]; 25 mg/day): -32.5 mg/dL
mean reduction from baseline in Cavg B ([1]; 100 mg group): 37 mg/dL
mean reduction in Cavg B calculated as a percent change ([1]; 100 mg group): 17%
4-hour postprandial plasma glucose following breakfast, Day 14 Actual, Mean ([1]; 100 mg/day, type II diabetes patients): 173.5 mg/dL
4-hour postprandial plasma glucose, Difference in Change from Baseline from Placebo, LS Mean ([1]; 100 mg/day): -48.6 mg/dL
4-hour postprandial plasma glucose following breakfast, Day 14 Change from Baseline, Mean ([1]; 100 mg/day): -37.2 mg/dL
mean reduction from baseline in Cavg B ([1]; 400 mg group): 66 mg/dL
mean reduction in Cavg B calculated as a percent change ([1]; 400 mg group): 24%
4-hour postprandial plasma glucose following breakfast, Day 14 Actual, Mean ([1]; 400 mg/day, type II diabetes patients): 198.6 mg/dL
4-hour postprandial plasma glucose, Difference in Change from Baseline from Placebo, LS Mean ([1]; 400 mg/day): -68.3 mg/dL
4-hour postprandial plasma glucose following breakfast, Day 14 Change from Baseline, Mean ([1]; 400 mg/day): -65.6 mg/dL
4-hour postprandial plasma glucose following breakfast, Day 14 Actual, Mean ([1]; All Active (25, 100, 400 mg/day combined)): 191.8 mg/dL
4-hour postprandial plasma glucose, Difference in Change from Baseline from Placebo, LS Mean ([1]; All Active): -52.3 mg/dL
4-hour postprandial plasma glucose following breakfast, Day 14 Change from Baseline, Mean ([1]; All Active): -44.3 mg/dL
Glycosylated Hemoglobin (HbA1c), Day 15 Actual, Mean ([2]; 25 mg/day for 14 days, type II diabetes patients): 7.76%
HbA1c, Difference in Change from Baseline from Placebo, LS Mean ([2]; 25 mg/day): −0.27%
HbA1c, Day 15 Change from Baseline, Mean ([2]; 25 mg/day): −0.22%
Glycosylated Hemoglobin (HbA1c), Day 15 Actual, Mean ([2]; 100 mg/day for 14 days, type II diabetes patients): 7.25%
HbA1c, Difference in Change from Baseline from Placebo, LS Mean ([2]; 100 mg/day): −0.45%
HbA1c, Day 15 Change from Baseline, Mean ([2]; 100 mg/day): −0.40%
Glycosylated Hemoglobin (HbA1c), Day 15 Actual, Mean ([2]; 400 mg/day for 14 days, type II diabetes patients): 7.82%
HbA1c, Difference in Change from Baseline from Placebo, LS Mean ([2]; 400 mg/day): −0.32%
HbA1c, Day 15 Change from Baseline, Mean ([2]; 400 mg/day): −0.28%
Glycosylated Hemoglobin (HbA1c), Day 15 Actual, Mean ([2]; All Active, 14 days): 7.60%
HbA1c, Difference in Change from Baseline from Placebo, LS Mean ([2]; All Active): −0.35%
HbA1c, Day 15 Change from Baseline, Mean ([2]; All Active): −0.30%
Fasting Fructosamine, Day 15 Actual, Mean ([3]; 25 mg/day for 14 days): 310.7 µmol/L
Fasting Fructosamine, Difference in Change from Baseline from Placebo, LS Mean ([3]; 25 mg/day): -9.6 µmol/L
Fasting Fructosamine, Day 15 Actual, Mean ([3]; 100 mg/day for 14 days): 263.9 µmol/L
Fasting Fructosamine, Day 15 Change from Baseline, Mean ([3]; 100 mg/day): -25.6 µmol/L
Fasting Fructosamine, Day 15 Actual, Mean ([3]; 400 mg/day for 14 days): 312.6 µmol/L
Fasting Fructosamine, Day 15 Change from Baseline, Mean ([3]; 400 mg/day): -19.9 µmol/L
Fasting Fructosamine, Difference in Change from Baseline from Placebo, LS Mean ([3]; All Active): -28.6 µmol/L
Fasting Fructosamine, Day 15 Change from Baseline, Mean ([3]; All Active): -12.9 µmol/L
Glycosylated Hemoglobin (%) [4]: 5.8 ± 0.5%
decrease of hemoglobin A1c level compared to placebo control [5]: greater than 0.5%
Fasting Fructosamine, Day 15 Change from Baseline, Mean ([6]; 25 mg/day, baseline Day −7): 6.3 µmol/L
Fasting Fructosamine, Difference in Change from Baseline from Placebo, LS Mean ([6]; 100 mg/day): -42.9 µmol/L
Fasting Fructosamine, Difference in Change from Baseline from Placebo, LS Mean ([6]; 400 mg/day): -33.2 µmol/L
Fasting Fructosamine, Day 15 Actual, Mean ([6]; All Active, 14 days): 295.3 µmol/L

CCc1ccc(CCOc2ccc(CC3SC(=O)NC3=O)cc2)nc1 (stereo not drawn) [Pioglitazone, 5-{[4-(2-(5-ethyl-2-pyridyl)ethoxy)phenyl]-methyl}-thiazolidine-2,4-dione, reference compound]
Glycosylated Hemoglobin (%) [4]: 5.0 ± 0.7%
